Experimental data published in patent publication EP0348509B1, “ANTI-RETROVIRAL DRUG” (TSUMURA & CO., priority 1987, dated 1989).
Converted amounts (≈) assume the structure as drawn.

Legend:
[1] = intravenous administration; species not given; cited from earlier work
HIV = assay: Inhibition of modification of HIV-infected MT-2 cells (living cell count after 1 week); format: cell-based; conditions: 5 µg/ml added; MT-2 cells infected with HIV; living cells counted after 1 week
Method: MT-2 cells were cultured at a concentration of 3 x 10⁴ cells/ml in a culture medium of RPMI 1640 (supplied by Gibco Co.) containing 10% FCS (supplied by Gibco Co.). After 2 days, the MT-2 cells were infected with HIV at a ratio of 200 cells per HIV, were distributed into groups to which 5 µg/ml of baicalein, quercetin or hesperetin was added and non-added groups (control groups), and the effect of the addition was determined.

Reverse transcriptase = assay: Inhibition of reverse transcriptase activity ([3H]dTTP incorporation into acid-insoluble fraction)
Method: OF TOKYO PRESS TOKYO/KARGER, BASEL, pp. 603-605 (1975)], and then a reaction mixture liquid having the following composition was prepared.
By "1 unit" is meant the unit of the relative activity of the reverse transcriptase required to consume 1 nmol of dNTP (deoxynucleic acid phosphate at 37°C for 1 hour.
Then the dry extract powder obtained in the above-mentioned Specific Example, baicalein, baicalin, quercetin or hesperetin and refined water were added to 20 ml of the above-mentioned reaction mixture liquid so that the total volume was 50 µl, the incorporation of the radioactivity of [³H]dTTP into the acid-insoluble fraction was measured by a Beckmann scintillation counter, and the percent inhibition was calculated as the reverse transcriptase activity with respect to each concentration.

[2] = test system: male rats of the Wistar line; assay: Acute toxicity by oral administration, rats; format: in vivo; conditions: dose of 1 g/kg
[3] = test system: male mice of the ddY line; assay: Acute toxicity by oral administration, mice; format: in vivo; conditions: dose of 1 g/kg
HTLV-1 = HTLV-1 production by MT-2 cells (RNA hybridization with 32P-labelled HTLV-1 cDNA); format: cell-based; conditions: 4 days, compared with control
Method: The test substance and 1 x 10⁵ cells per well of MT-2 cells were charged in a 24-well microplate, and culturing was conducted for 4 days. Then the MT-2 cell suspension in each well was subjected to centrifugal separation, and the supernatant was extracted with phenol to obtain RNA of HTLV-1. This RNA and a known amount of HTLV-1 cDNA were plotted on a nitrocellulose paper, a comparative determination was carried out according to the hybridization using ³²P-labelled HTLV-1 cDNA, and the hydridization rate by the test substance was calculated by comparing the amount of the produced virus with that of the control.
The results are shown as the hybridization rate (%) in Table 7.

RSV. SR-A strain = assay: Focus formation by RSV in primary chicken embryo fibroblasts; format: cell-based; conditions: Rous sarcoma virus, Fibroblast, 192 h, number of foci, 8 days, read-out: IC₅₀
Method: A 24-well microplate was charged with 3.5 x 10⁵ cells per well of primary chicken embryo fibroblasts, and the fibroblasts were cultured at 37°C in an atmospher of 5% CO₂ for 6 hours. Then an RSV. SR-A strain having an infection multiplicity (M.O.I.) of about 2.0 x 10⁻⁴ and the test substance were added, and culturing was continued for further 2 hours. The cells were washed and the test substance and an agar culture medium were added, and then culturing was continued at 37°C in an atmospher of 5% CO₂ for further 8 days. The number of foci was counted, and the results are shown as IC₅₀ in Table 6.

SMILES | modification of MT-2 cells with HIV was inhibited at a ratio (HIV) | Percent inhibition (%) (Reverse transcriptase; concentration 1 µg/ml) | Percent inhibition (%) (Reverse transcriptase; concentration 2 µg/ml) | Percent inhibition (%) (Reverse transcriptase; concentration 5 µg/ml) | Percent inhibition (%) (Reverse transcriptase; concentration 10 µg/ml) | Percent inhibition (%) (Reverse transcriptase; concentration 20 µg/ml) | acute toxicity (death) [2] | acute toxicity (death) [3] | also measured
O=C1c2ccccc2C(=O)c2c1ccc(O)c2O [alizarin, 1,2-dihydroxyanthraquinone] | – | – | – | – | – | – | – | – | LD₅₀ [1]: 120 mg/kg
O=c1c(O)c(-c2ccc(O)c(O)c2)oc2cc(O)cc(O)c12 [quercetin] | at least 90% | 77 | 96 | 99 | 100 | 100 | no animal died | no animal died | Percent inhibition (%) (Reverse transcriptase; concentration 50 µg/ml): 100%
O=C1c2ccccc2C(=O)c2c1cc(S(=O)(=O)O)c(O)c2O [Alizarine Red S] | – | – | – | – | – | – | – | – | Hybridization Rate (%) (HTLV-1; Amount Added 20 µg/ml): 61.7%; IC50 (RSV. SR-A strain): 2.1 µg/mL (≈ 6.56 µM); LD₅₀ [1]: 70 mg/kg
COc1ccc([C@@H]2CC(=O)c3c(O)cc(O)cc3O2)cc1O [hesperetin] | at least 90% | 99 | 100 | 100 | 100 | 100 | no animal died | no animal died | Percent inhibition (%) (Reverse transcriptase; concentration 50 µg/ml): 100%
O=c1cc(-c2ccccc2)oc2cc(O)c(O)c(O)c12 [baicalein] | at least 90% | 92 | 98 | 100 | 100 | 100 | no animal died | no animal died | Percent inhibition (%) (Reverse transcriptase; concentration 0.1 µg/ml): 29%; Percent inhibition (%) (Reverse transcriptase; concentration 0.2 µg/ml): 35%; Percent inhibition (%) (Reverse transcriptase; concentration 0.5 µg/ml): 74%
O=C(O)[C@H]1O[C@@H](Oc2cc3oc(-c4ccccc4)cc(=O)c3c(O)c2O)[C@H](O)[C@@H](O)[C@@H]1O [baicalin] | – | 19 | 27 | 73 | 90 | 100 | no animal died | no animal died | –
O=C(O)CN(CC(=O)O)Cc1cc2c(c(O)c1O)C(=O)c1ccccc1C2=O [alizarin complexon] | – | – | – | – | – | – | – | – | IC50 (RSV. SR-A strain): 4.3 µg/mL
O=C1c2ccccc2C(=O)c2c(O)c(O)cc(O)c21 [purpurin] | – | – | – | – | – | – | – | – | Hybridization Rate (%) (HTLV-1; Amount Added 5 µg/ml): 61.3%
